{"source": "paper PMC7291858", "about": "“An Enhanced Variant Designed From DLP4 Cationic Peptide Against Staphylococcus aureus CVCC 546” (Frontiers in Microbiology, 2020)", "key": {"[1]": {"tested_on": "mouse erythrocytes", "test": "Hemolytic activity", "assay_type": "cell-based", "conditions": "128 μg/mL, 8% (v/v) mouse erythrocytes in PBS, 1 h, 37°C, absorbance 576 nm, n = 3", "experimental": "Hemolytic activity of peptides was evaluated with fresh mouse erythrocytes. Briefly, fresh mouse erythrocytes were collected, washed, and resuspended to a concentration of 8% (v/v) in PBS. Then, an aliquot of erythrocyte solution was added to 96-well plates containing an equal volume of peptide solution (1∼256 μg/mL) and was incubated for 1 h at 37°C. The erythrocyte suspension treated with 0.1% Triton X-100 and left untreated was employed as positive and negative controls, respectively. After centrifugation at 2000 rpm for 5 min, the supernatant was measured using a microplate reader at 576 nm. The percent hemolysis was calculated using the following formula: Percenthemolysis = [(A − A0)/(A100 − A0)] × 100%, where A, A100, and A0 represent the absorbance of the peptide sample and positive and negative controls, respectively."}, "[2]": {"tested_on": "mouse macrophage RAW 264.7", "test": "Cytotoxicity, MTT assay", "assay_type": "cell-based", "conditions": "256 μg/mL, RAW 264.7, MTT, n = 4", "experimental": "The cytotoxicity of peptides toward mouse macrophage RAW 264.7 was evaluated by the MTT assay as described previously ([Wang X. et al., 2018])."}, "[3]": {"tested_on": "S. aureus CVCC 546", "test": "Time-kill assay", "assay_type": "cell-based, Staphylococcus aureus", "conditions": "MHB, 10^5 CFU/mL, 37°C, n = 3", "description": "Time-kill assay was used to assess the killing rates of S. aureus cells by AMPs in vitro, done by measuring the number of viable bacteria left at various times after exposure to the peptides. […] At different time intervals, a certain sample was taken, serially diluted, and plated on MHA for colonies counting. Cells treated with 2 × MIC DLP4 or vancomycin and left without treatment were used as the positive and blank controls, respectively ([Flamm et al., 2019])."}}, "note": "Peptide text beside a SMILES is read from it."}
{"smiles": "CC[C@H](C)[C@@H]1NC(=O)[C@@H]2CSSC[C@@H](C(=O)N[C@@H](CCCNC(=N)N)C(=O)N[C@@H](CCCCN)C(=O)O)NC(=O)[C@H](CC(N)=O)NC(=O)[C@@H]3CSSC[C@H](NC(=O)[C@H](C)NC(=O)[C@H](C)NC(=O)[C@H](Cc4c[nH]cn4)NC(=O)CNC(=O)[C@H](C(C)C)NC(=O)[C@H](CCCCN)NC(=O)[C@H](Cc4ccccc4)NC(=O)[C@@H]4CCCN4C(=O)[C@H](CO)NC(=O)[C@H](CC(C)C)NC(=O)[C@H](CC(C)C)NC(=O)[C@H](CC(=O)O)NC(=O)[C@@H](NC(=O)[C@@H](NC(=O)[C@H](C)N)[C@@H](C)O)CSSC[C@H](NC(=O)[C@H](Cc4c[nH]c5ccccc45)NC(=O)CNC(=O)CNC(=O)[C@H](CCCNC(=N)N)NC(=O)[C@H](CCCCN)NC(=O)CNC(=O)[C@H](CCCNC(=N)N)NC(=O)[C@H](C)NC1=O)C(=O)N[C@@H](CC(=O)O)C(=O)NCC(=O)N[C@@H](CCCNC(=N)N)C(=O)N[C@@H](C)C(=O)N[C@@H](C(C)C)C(=O)N3)C(=O)N[C@@H](C)C(=O)N[C@@H](C)C(=O)N[C@@H](Cc1c[nH]cn1)C(=O)N2", "note": "[ID13] (HELM PEPTIDE1{A.T.C.D.L.L.S.P.F.K.V.G.H.A.A.C.A.A.H.C.I.A.R.G.K.R.G.G.W.C.D.G.R.A.V.C.N.C.R.K}$PEPTIDE1,PEPTIDE1,3:R3-30:R3|PEPTIDE1,PEPTIDE1,16:R3-36:R3|PEPTIDE1,PEPTIDE1,20:R3-38:R3$$$V2.0; N-terminus and C-terminus assumed)", "values": [{"measurement": "hemolysis", "setting": "[1]", "result": 0.38, "unit": "%"}, {"measurement": "cell viability", "setting": "[2]", "result": 71.4, "unit": "%"}, {"measurement": "decrease of CFU counts within 1 h", "setting": "[3]; 1 × MIC", "result": 2.16, "unit": "log10 CFU/mL"}, {"measurement": "decrease of CFU counts within 1 h", "setting": "[3]; 2 × MIC", "result": 3.14, "unit": "log10 CFU/mL"}, {"measurement": "decrease of CFU counts within 1 h", "setting": "[3]; 4 × MIC", "result": 3.4, "unit": "log10 CFU/mL"}]}
